Measured values: patent publication US6150373A, “Bicyclic nitrogen heterocycles” (Hoffmann-La Roche Inc., priority 1998, dated 2000)
Counter-ions that a name gives are not always drawn.

Target: human recombinant p56^lck (Homo sapiens, UniProt P06239)
Test: Inhibition of T-cell tyrosine kinase p56^lck (incorporation of 33P from [γ-^33 P] ATP into peptide substrate)
Format: biochemical
Conditions: 10 μM ATP, 20 μM peptide substrate, 30° C., 60 minutes, pH 7.5
Text: As mentioned earlier, the compounds of formula I, the pharmaceutically acceptable salts of basic compounds of formula I with acids, and the pharmaceutically acceptable salts of acidic compounds of formula I with bases, are all inhibitors of the T-cell tyrosine kinase p56^lck which will down-regulate T-cell activation leading to immunosuppression and decrease inflammation. Therefore, the compounds of the invention are anti-inflammatory agents which can be used in combating the inflammatory condition which occurs in various diseases, as well as immunosuppressives which can be used, for example, for preventing graft rejection in transplantation therapy.
Reaction mixtures (25 μl) containing human recombinant p56^lck, 10 mM MnCl2, 10-μM ATP, 0.2 mM sodium vanadate, 20 μM peptide substrate (AlaGluGluGluIleTyr-GlyGlu-PheGluAlaLysLysLysLys, [γ-^33 P] ATP (1000-2000 cpm/pmol) in 25 mM HEPES buffer (pH 7.5) and 0.1% Triton X-100 are incubated at 30° C. for 60 minutes and the reaction is then stopped by the addition of 10 μl of 2% orthophosphoric acid. Radiolabelled peptide is separated from unreacted [γ-^33 P] ATP by filtration through Millipore Multiscreen phosphocellulose cation exchange paper filters. Bound peptide is washed with 0.5% orthophosphoric acid and incorporated radioactivity is determined by scintillation spectrometry.
The degree of enzyme blockade at each concentration of test compound is calculated from the following equation: [formula]
The IC50 value is that concentration of test compound which reduces by 50% the protein kinase-induced incorporation of the radiolabel under the test conditions described earlier.

human recombinant p56^lck, sequence (P06239 whole entry): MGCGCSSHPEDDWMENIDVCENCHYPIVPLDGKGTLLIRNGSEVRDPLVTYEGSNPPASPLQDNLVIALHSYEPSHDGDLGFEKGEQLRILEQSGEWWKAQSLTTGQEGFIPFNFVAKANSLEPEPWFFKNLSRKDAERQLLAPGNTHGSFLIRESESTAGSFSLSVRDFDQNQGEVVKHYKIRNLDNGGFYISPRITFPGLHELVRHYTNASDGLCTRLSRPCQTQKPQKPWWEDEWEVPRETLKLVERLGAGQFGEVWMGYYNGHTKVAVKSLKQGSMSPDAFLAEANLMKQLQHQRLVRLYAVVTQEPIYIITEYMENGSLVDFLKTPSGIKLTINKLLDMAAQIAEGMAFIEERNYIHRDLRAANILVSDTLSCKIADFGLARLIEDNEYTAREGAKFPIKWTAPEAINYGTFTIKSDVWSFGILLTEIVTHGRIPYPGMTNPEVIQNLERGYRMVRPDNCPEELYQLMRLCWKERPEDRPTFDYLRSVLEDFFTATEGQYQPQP

IC50 | SMILES
10 nM | CCN(CC)CCOc1ccc(Nc2ncc3c(n2)N(C)C(=O)N(c2c(Cl)cccc2Cl)C3)cc1 [Example 1, 3-(2,6-dichlorophenyl)-7-[4-[2-(diethylamino)ethoxy]anilino]-3,4-dihydro-1-methylpyrimido[4,5-d]pyrimidin-2(1H)-one]
0.6 nM | CCN(CC)CCOc1ccc(Nc2ncc3c(n2)N(c2ccccc2)C(=O)N(c2c(Cl)cccc2Cl)C3)cc1 [Example 7, 3-(2,6-dichlorophenyl)-7-[4-[2-(diethylamino)ethoxy]anilino]-3,4-dihydro-1-phenylpyrimido[4,5-d]pyrimidin-2(1H)-one]
19 nM | CCN(CC)CCOc1ccc(Nc2ncc3c(n2)N(Cc2cccnc2)C(=O)N(c2c(Cl)cccc2Cl)C3)cc1 [Example 10, 3-(2,6-dichlorophenyl)-7-[4-[2-(diethylamino)ethoxy]anilino]-3,4-dihydro-1-[(3-pyridyl)-methyl]pyrimido[4,5-d]pyrimidin-2(1H)-one trifluoroacetate]
265 nM | O=C1N(c2c(Cl)cccc2Cl)Cc2cnc(Nc3ccncc3)nc2N1c1ccccc1 [Example 22, 3-(2,6-dichlorophenyl)-3,4-dihydro-1-phenyl-7-[(4-pyridyl)amino]pyrimido[4,5-d]pyrimidin-2(1H)-one]
0.03 nM | NCCc1cccc(N2C(=O)N(c3c(Cl)cccc3Cl)Cc3cnc(Nc4ccccc4)nc32)c1 [Example 38, 1-[3-(2-aminoethyl)phenyl]-7-anilino-3-(2,6-dichlorophenyl)-3,4-dihydropyrimido[4,5-d]pyrimidin-2(1H)-one]
6 nM | NCCc1cccc(N2C(=O)N(c3ccccc3Br)Cc3cnc(Nc4ccccc4)nc32)c1 [Example 50, 1-[3-(2-aminoethyl)phenyl]-7-anilino-3-(2-bromophenyl)-3,4-dihydropyrimido[4,5-d]pyrimidin-2(1H)-one]
17 nM | O=C1N(c2ccccc2Br)Cc2cnc(Nc3ccccc3)nc2N1c1ccc(CO)cc1 [Example 63, 7-anilino-3-(2-bromophenyl)-3,4-dihydro-1-[4-(hydroxymethyl)phenyl]pyrimido[4,5-d]pyrimidin-2(1H)-one]
0.4 nM | CCN(CC)CCOc1ccc(Nc2ncc3c(n2)N(c2cccc(CCN(C)C)c2)C(=O)N(c2ccc(Cl)cc2Cl)C3)cc1 [Example 82, 3-(2,4-dichlorophenyl)-7-[4-[2-(diethylamino)ethoxy]anilino]-3,4-dihydro-1-[3-(2-(dimethylamino)ethyl)phenyl]pyrimido[4,5-d]pyrimidin-2(1H)-one]
7 nM | CCC(CC)(CN)c1cccc(N2C(=O)N(c3c(Cl)cccc3Cl)Cc3cnc(Nc4ccccc4)nc32)c1 [Example 85, 1-[3-(1-aminomethyl-1-ethyl-propyl)-phenyl]-3-(2,6-dichloro-phenyl)-7-phenylamino-3,4-dihydro-pyrimido[4,5-d]pyrimidin-2(1H)-one trifluoroacetate]
